Measured values taken from ChEMBL document CHEMBL1126918, “Analysis of two cycloplatinated compounds derived from N-(4-methoxyphenyl)-alpha-benzoylbenzylidenamine. Comparison of the activity of these compounds with other isostructural cyclopalladated compounds” (J Med Chem, 1993).

Key:
HL-60 = assay: Tested for inhibition against leukemic HL-60 (human cancer) cell lines; type: functional, cell-based
MDA-MB-468 = assay: Tested for inhibition against mammary cancer MDA-MB 468 (breast carcinoma) cell lines; type: functional, cell-based; conditions: Homo sapiens

## CISPLATIN
HL-60
  ID50: 2.3 µM
MDA-MB-468
  ID50: 3.3 µM
